Key:
[1] = (§1) The drug is tested on Z-028 corresponding to mouse gut metagenome with ENA study accession number: PRJEB37062 and ENA sample accession number: ERS12561827 for biotransformation under anaerobic condition. The drug concentrations were measured over 9 timepoints collected between 0 and 24 hours of incubation by liquid-chromatography-coupled mass spectrometry (LC–MS); settings: 2 µM
[2] = as §1, with “Z-026” for “Z-028”, “to” for “to mouse gut”, “ERS12561825” for “ERS12561827”; settings: 2 µM
[3] = as §1, with “Z-023” for “Z-028”, “to” for “to mouse gut”, “ERS12561822” for “ERS12561827”; settings: 2 µM
[4] = as §1, with “Z-022” for “Z-028”, “ERS12561821” for “ERS12561827”; settings: 2 µM
[5] = as §1, with “Z-021” for “Z-028”, “to” for “to mouse gut”, “ERS12561820” for “ERS12561827”; settings: 2 µM
[6] = as §1, with “Z-016” for “Z-028”, “ERS12561815” for “ERS12561827”; settings: 2 µM
[7] = as §1, with “Z-013” for “Z-028”, “rabbit” for “mouse”, “ERS12561813” for “ERS12561827”; settings: 2 µM
[8] = as §1, with “Z-007” for “Z-028”, “rat” for “mouse”, “ERS12561807” for “ERS12561827”; settings: 2 µM
[9] = as §1, with “Z-001” for “Z-028”, “ERS12561801” for “ERS12561827”; settings: 2 µM
[10] = as §1, with “WLS-098” for “Z-028”, “human” for “mouse”, “ERS12561754” for “ERS12561827”; settings: 2 µM
[11] = as §1, with “WLS-007” for “Z-028”, “human” for “mouse”, “ERS12561742” for “ERS12561827”; settings: 2 µM
[12] = human gut metagenome, 24 h, 2 µM
[13] = human gut metagenome, 24 h, 2 µM; remark: listed apart in the source
[14] = human gut metagenome, 24 h, 2 µM; remark: listed apart in the source
[15] = human gut metagenome, 24 h, 2 µM; remark: listed apart in the source
[16] = human gut metagenome, 24 h, 2 µM; remark: listed apart in the source
[17] = human gut metagenome, 24 h, 2 µM; remark: listed apart in the source
[18] = human gut metagenome, 24 h, 2 µM; remark: listed apart in the source
[19] = human gut metagenome, 24 h, 2 µM; remark: listed apart in the source
[20] = human gut metagenome, 24 h, 2 µM; remark: listed apart in the source
Also: call rule not given here.

Compound | Bacterial Biotransformation [1] | Bacterial Biotransformation [2] | Bacterial Biotransformation [3] | Bacterial Biotransformation [4] | Bacterial Biotransformation [5] | Bacterial Biotransformation [6] | Bacterial Biotransformation [7] | Bacterial Biotransformation [8] | Bacterial Biotransformation [9] | Bacterial Biotransformation [10] | Bacterial Biotransformation [11] | Bacterial Biotransformation [12] | Bacterial Biotransformation [13] | Bacterial Biotransformation [14] | Bacterial Biotransformation [15] | Bacterial Biotransformation [16] | Bacterial Biotransformation [17] | Bacterial Biotransformation [18] | Bacterial Biotransformation [19] | Bacterial Biotransformation [20]
NC12CC3CC(CC(C3)C1)C2 [AMANTADINE] | Compound NOT metabolized | Compound NOT metabolized | Compound NOT metabolized | Compound metabolized | Compound NOT metabolized | Compound NOT metabolized | Compound NOT metabolized | Compound NOT metabolized | Compound NOT metabolized | Compound NOT metabolized | Compound NOT metabolized | Compound NOT metabolized | Compound NOT metabolized | Compound NOT metabolized | Compound NOT metabolized | Compound NOT metabolized | Compound NOT metabolized | Compound NOT metabolized | Compound NOT metabolized | Compound NOT metabolized
CC(C)(C#N)c1cc(Cn2cncn2)cc(C(C)(C)C#N)c1 [ANASTROZOLE] | Compound NOT metabolized | Compound NOT metabolized | Compound metabolized | Compound metabolized | Compound metabolized | Compound NOT metabolized | Compound NOT metabolized | Compound NOT metabolized | Compound NOT metabolized | Compound metabolized | Compound NOT metabolized | Compound NOT metabolized | Compound NOT metabolized | Compound NOT metabolized | Compound NOT metabolized | Compound metabolized | Compound NOT metabolized | Compound NOT metabolized | Compound NOT metabolized | Compound metabolized
O=P(O)(O)O.c1ccc(CN(CC2=NCCN2)c2ccccc2)cc1 [ANTAZOLINE PHOSPHATE] | Compound NOT metabolized | Compound NOT metabolized | Compound NOT metabolized | Compound NOT metabolized | Compound NOT metabolized | Compound NOT metabolized | Compound NOT metabolized | Compound NOT metabolized | Compound NOT metabolized | Compound metabolized | Compound metabolized | Compound NOT metabolized | Compound NOT metabolized | Compound NOT metabolized | Compound NOT metabolized | Compound NOT metabolized | Compound NOT metabolized | Compound NOT metabolized | Compound metabolized | Compound metabolized
CN1CCC(=C2c3ccccc3CCc3cccnc32)CC1.O=C(O)/C=C\C(=O)O.O=C(O)/C=C\C(=O)O [AZATADINE MALEATE] | Compound NOT metabolized | Compound NOT metabolized | Compound NOT metabolized | Compound NOT metabolized | Compound NOT metabolized | Compound NOT metabolized | Compound NOT metabolized | Compound NOT metabolized | Compound NOT metabolized | Compound NOT metabolized | Compound NOT metabolized | Compound NOT metabolized | Compound NOT metabolized | Compound NOT metabolized | Compound NOT metabolized | Compound NOT metabolized | Compound NOT metabolized | Compound NOT metabolized | Compound NOT metabolized | Compound metabolized
CC(=O)OCC(=O)[C@@]1(O)[C@@H](C)C[C@H]2[C@@H]3CCC4=CC(=O)C=C[C@]4(C)[C@@]3(F)[C@@H](O)C[C@@]21C [BETAMETHASONE ACETATE] | Compound metabolized | Compound metabolized | Compound metabolized | Compound metabolized | Compound metabolized | Compound metabolized | Compound metabolized | Compound NOT metabolized | Compound metabolized | Compound metabolized | Compound metabolized | Compound metabolized | Compound metabolized | Compound NOT metabolized | Compound metabolized | Compound metabolized | Compound metabolized | Compound metabolized | Compound metabolized | Compound metabolized
CC(C)NCC(O)COc1ccc(CCOCC2CC2)cc1 (stereo not given) [BETAXOLOL] | Compound NOT metabolized | Compound NOT metabolized | Compound metabolized | Compound NOT metabolized | Compound NOT metabolized | Compound NOT metabolized | Compound NOT metabolized | Compound NOT metabolized | Compound NOT metabolized | Compound metabolized | Compound NOT metabolized | Compound NOT metabolized | Compound NOT metabolized | Compound NOT metabolized | Compound NOT metabolized | Compound NOT metabolized | Compound NOT metabolized | Compound NOT metabolized | Compound NOT metabolized | Compound metabolized
CC(C)(Oc1ccc(CCNC(=O)c2ccc(Cl)cc2)cc1)C(=O)O [BEZAFIBRATE] | Compound NOT metabolized | Compound NOT metabolized | Compound metabolized | Compound metabolized | Compound metabolized | Compound metabolized | Compound metabolized | Compound NOT metabolized | Compound NOT metabolized | Compound metabolized | Compound metabolized | Compound metabolized | Compound metabolized | Compound NOT metabolized | Compound metabolized | Compound metabolized | Compound metabolized | Compound metabolized | Compound metabolized | Compound metabolized
CC(O)(CS(=O)(=O)c1ccc(F)cc1)C(=O)Nc1ccc(C#N)c(C(F)(F)F)c1 (stereo not given) [BICALUTAMIDE] | Compound NOT metabolized | Compound NOT metabolized | Compound NOT metabolized | Compound NOT metabolized | Compound NOT metabolized | Compound NOT metabolized | Compound NOT metabolized | Compound NOT metabolized | Compound NOT metabolized | Compound NOT metabolized | Compound NOT metabolized | Compound NOT metabolized | Compound NOT metabolized | Compound NOT metabolized | Compound NOT metabolized | Compound NOT metabolized | Compound NOT metabolized | Compound NOT metabolized | Compound NOT metabolized | Compound NOT metabolized
